Laboratory results from US8071631B2, “Small molecule inhibitors of kynurenine-3-monooxygenase” (The J. David Gladstone Institutes, A Testamentary Trust …, priority 2006, dated 2011).

System: kynurenine-3-monooxygenase (KMO)
Assay: KMO inhibition, radiometric assay per Erickson et al. (release of 3H2O from L-[3,5-3H]-kynurenine)
Format: biochemical
Details: compound at 10 μM
Description: The KMO inhibiting activities of the compounds of the present invention were evaluated using standard methods. See Erickson et al., A Radiometric Assay for Kynurenine 3-Hydroxylase Based on the Release of ^3H2O During Hydroxylation of L-[3,5-^3H]-Kynurenine, Anal. Biochem. 1992, 205, 257-262, the disclosure of which is hereby incorporated by reference.
The IC50 value is the half maximal inhibitory concentration and represents the concentration of an inhibitor that is required for 50% inhibition of an enzyme activity and the percent inhibition measures the amount of enzyme activity inhibited at a given concentration of compound. If the administered compound is a prodrug then the prodrug may not inhibit KMO until it has metabolized appropriately.

% inhibition at 10 μM [%] | Compound
73.61 | COc1ccc(S(=O)(=O)Nc2nc(-c3ccccc3)ns2)cc1OC [Compound A1, 3,4-dimethoxy-N-[3-(phenyl)-1,2,4-thiadiazol-5-yl]benzenesulfonamide]
77.9 | Cc1ccc(S(=O)(=O)Nc2nc(-c3ccccc3)ns2)cc1 [Compound A2, 4-methyl-N-[3-(phenyl)-1,2,4-thiadiazol-5-yl]benzenesulfonamide]
60.03 | COc1ccc(S(=O)(=O)Nc2nnc(-c3ccccc3)s2)cc1OC [Compound A5, 3,4-dimethoxy-N-[5-(phenyl)-1,3,4-thiadiazol-2-yl]benzenesulfonamide]
71.59 | Cc1ccc(S(=O)(=O)Nc2nnc(-c3ccccc3)s2)cc1 [Compound A6, 4-methyl-N-[5-(phenyl)-1,3,4-thiadiazol-2-yl]benzenesulfonamide]
17.82 | COc1ccc(S(=O)(=O)Nc2cc(-c3ccccc3)no2)cc1OC [Compound A13, 3,4-dimethoxy-N-[3-(phenyl)-isoxazol-5-yl]benzenesulfonamide]
30.74 | Cc1ccc(S(=O)(=O)Nc2cc(-c3ccccc3)no2)cc1 [Compound A14, 4-methyl-N-[3-(phenyl)-isoxazol-5-yl]benzenesulfonamide]
68.6 | COc1ccc(S(=O)(=O)Nc2nsc(-c3ccc(Cl)cc3)n2)cc1OC [Compound A19, 3,4-dimethoxy-N-[5-(4-chlorophenyl)-1,2,4-thiadiazole-3-yl]benzenesulfonamide]
17.5 | COc1ccc(-c2cnc(NS(=O)(=O)c3ccc(OC)c(OC)c3)nc2)cc1 [Compound A23, 3,4-dimethoxy-N-[5-(4-methoxyphenyl)-pyrimidine-2-yl]benzenesulfonamide]
24.8 | COc1ccc(S(=O)(=O)Nc2ccc(-c3ccccc3)cn2)cc1OC [Compound A25, 3,4-dimethoxy-N-[5-(phenyl)-pyridine-2-yl]benzenesulfonamide]

Compound | % inhibition at 10 μM [%]
COc1ccc(S(=O)(=O)[N-]c2cccc(-c3ccccc3)c2)cc1OC.[K+] [Compound A22, Potassium 3,4-dimethoxy-N-[biphenyl-3-yl]benzenesulfonamide] | 19.57
